Consider 23 compounds from patent US5057523A, “Dipeptide quinolone derivatives” (Abbott Laboratories, priority 1989, dated 1991).

Values after ≈ are worked out from the molar mass of the structure shown. Structures can show the parent of a compound that is named as a salt. Bounds are passed on as bounds.

For orientation: MIC means the lowest concentration that inhibits growth of the organism. A high value points to weaker potency.

One assay deals with Stap. Aureus NCTC 10649. Nature of the assay: Acute mouse protection test. Format: in vivo. The settings on record: mice infected intraperitoneally with Stap. Aureus NCTC 10649, dosed at 1 and 5 hours post-infection.
The next assay has as its system Strep pyogenes EES 61. Nature of the assay: Second in vitro test, MIC in Brain Heart Infusion Broth (BHIB).
The test system of assay [1] is E. Coli Juhl. As to the kind of experiment: Acute mouse protection test. Format: in vivo. The settings on record: mice infected intraperitoneally with E. Coli JUHL, dosed at 1 and 5 hours post-infection.
For assay [2], the system named is E. Coli Juhl. Nature of the assay: Second in vitro test, MIC in Brain Heart Infusion Broth (BHIB).
Procedure: (§1) The in vitro antibacterial activity of the test compounds was determined by conventional agar dilution procedures. The organisms were grown overnight in brain-heart infusion (BHI) broth (Difco 0037-01-6) at 36° C. Twofold dilutions of the stock solution (2000 mcg/mL) of the test compound were made in BHI agar to obtain a test concentration ranging from 200 to 0.005 mcg/mL. The plate was inoculated with approximately 10^4 organisms. It was then incubated at 36° C. for 18 h.
The next assay has as its system Stap. Aureus CMX 553. Described as above.
Another assay has as its system Ps. Aeruginosa A5007. The assay is described as above.
For a further assay, the system named is P. Aeruginosa A5007. As to the kind of experiment: Acute mouse protection test. Format: in vivo. The settings on record: mice infected intraperitoneally with P. Aeruginosa A5007, dosed at 1 and 5 hours post-infection.

Procedure for Ps. Aeruginosa A5007: as §1
Procedure for Stap. Aureus CMX 553: as §1
Procedure for Strep pyogenes EES 61: as §1

Regarding `NCC(=O)NC1CCN(c2nc3c(cc2F)c(=O)c(C(=O)O)cn3-c2ccc(F)cc2F)C1` (stereo not shown) [Example 7], the “Oral (ED50)” value in the assay with Stap. Aureus NCTC 10649 was 2.4 mg/kg/day; with E. Coli Juhl [1], 5.0 mg/kg/day. In addition, the MIC against Strep pyogenes EES 61 and in the assay with E. Coli Juhl [2] was 0.78 µg/mL (≈ 1.69 µM) each time.

Take `CC(N)C(=O)NC(Cc1ccccc1)C(=O)NC1CCN(c2nc3c(cc2F)c(=O)c(C(=O)O)cn3-c2ccc(F)cc2F)C1` (stereo not shown) [Example 11]: the “Oral (ED50)” value in the assay on Stap. Aureus NCTC 10649 came out at 2.0 mg/kg/day. Further, the MIC was 16 µg/mL (≈ 25.7 µM) in the assay with E. Coli Juhl [2] and 16.0 µg/mL (≈ 25.7 µM) with Stap. Aureus CMX 553.

In the case of `NC(Cc1ccc(O)cc1)C(=O)NC1CCN(c2nc3c(cc2F)c(=O)c(C(=O)O)cn3-c2ccc(F)cc2F)C1` (stereo not shown) [Example 13], the MIC in the assay with Ps. Aeruginosa A5007 was 50 µg/mL (≈ 88.1 µM). Moreover, the “Oral (ED50)” value with Stap. Aureus NCTC 10649 was 1.7 mg/kg/day.

For `CC(N)C(=O)NC1CCN(c2nc3c(cc2F)c(=O)c(C(=O)O)cn3-c2ccc(F)cc2F)C1` (stereo not shown) [Example 17], the values for the MIC against Ps. Aeruginosa A5007, with E. Coli Juhl [2] and in the assay on Stap. Aureus CMX 553 were 16 µg/mL (≈ 33.7 µM), 0.5 µg/mL (≈ 1.05 µM) and 2.0 µg/mL (≈ 4.21 µM), respectively. In addition, the “Oral (ED50)” value in the assay on Stap. Aureus NCTC 10649 is listed as 1.7 mg/kg/day; with E. Coli Juhl [1], 2.0 mg/kg/day.

`CC(C)CC(N)C(=O)NC1CCN(c2nc3c(cc2F)c(=O)c(C(=O)O)cn3-c2ccc(F)cc2F)C1` (stereo not shown) [Example 21]: the results for the MIC against Ps. Aeruginosa A5007 and against Strep pyogenes EES 61 were 25 µg/mL (≈ 48.3 µM) and 6.2 µg/mL (≈ 12 µM), respectively. The “Oral (ED50)” value in the assay with Stap. Aureus NCTC 10649 worked out at 2.4 mg/kg/day.

For the compound `CSCCC(N)C(=O)NC1CCN(c2nc3c(cc2F)c(=O)c(C(=O)O)cn3-c2ccc(F)cc2F)C1` (stereo not shown) [Example 23], in the assay with Ps. Aeruginosa A5007, the MIC amounted to 5.0 µg/mL (≈ 9.34 µM). Further, the “Oral (ED50)” value in the assay with Stap. Aureus NCTC 10649 is given as 1.5 mg/kg/day.

For the compound `CCCC(N)C(=O)NC1CCN(c2cc3c(cc2F)c(=O)c(C(=O)O)cn3-c2ccc(F)cc2F)C1` (stereo not shown) [Example 26b], the figures for the MIC in the assay on Ps. Aeruginosa A5007, with E. Coli Juhl [2] and against Stap. Aureus CMX 553 were 6.2 µg/mL (≈ 12.3 µM), 0.78 µg/mL (≈ 1.55 µM) and 0.39 µg/mL (≈ 0.776 µM), respectively.

In the assay with Strep pyogenes EES 61, `CCC[C@H](N)C(=O)NC1CCN(c2nc3c(cc2F)c(=O)c(C(=O)O)cn3CC)C1` (stereo partly shown) [Example 26ff] yielded an MIC of 6.2 µg/mL (≈ 14.8 µM).

For the compound `CCCC(N)C(=O)NC1CCN(c2cc3c(cc2F)c(=O)c(C(=O)O)cn3-c2ccc(F)cc2)C1` (stereo not shown) [Example 26h], the MIC with Ps. Aeruginosa A5007 is 6.2 µg/mL (≈ 12.8 µM); against E. Coli Juhl [2] it was 0.78 µg/mL (≈ 1.61 µM); in the assay on Stap. Aureus CMX 553, 0.78 µg/mL (≈ 1.61 µM). Further, in the assay with Stap. Aureus NCTC 10649, the “Oral (ED50)” value worked out at 4.0 mg/kg/day.

Regarding `CCCC(N)C(=O)NC1CCN(c2nc3c(cc2F)c(=O)c(C(=O)O)cn3-c2ccc(F)cc2)C1` (stereo not shown) [Example 26i], the MIC in the assay with Ps. Aeruginosa A5007 was 6.2 µg/mL (≈ 12.8 µM); against E. Coli Juhl [2], 0.39 µg/mL (≈ 0.803 µM). Further, the “Oral (ED50)” value in the assay on Stap. Aureus NCTC 10649 is recorded as 5.3 mg/kg/day.

On to `Cl.NCC(=O)N[C@@H](Cc1ccccc1)C(=O)NC1CCN(c2cc3c(cc2F)c(=O)c(C(=O)O)cn3-c2ccc(F)cc2F)C1` (stereo partly drawn) [Example 26jj, 1-(2,4-Difluorophenyl)-6-Fluoro-7-(3-Gly-L-Phe -Amino 1-Pyrrolidinyl)-1,4-Dihydro-4-Oxo-Quinoline-3-Carboxylic Acid Hydrochloride], for which the minimal inhibitory concentration (MIC) against Ps. Aeruginosa A5007 was 64 µg/mL; against Strep pyogenes EES 61 it was 32 µg/mL; with E. Coli Juhl [2], 16 µg/mL; against Stap. Aureus CMX 553, 16 µg/mL.

Turning to `CCCC(N)C(=O)NC1CCN(c2cc3c(cc2F)c(=O)c(C(=O)O)cn3C2CC2)C1` (stereo not shown) [Example 26l], in the assay on E. Coli Juhl [1], the “Oral (ED50)” value was 9.4 mg/kg/day.

On to `CC(C)CC(N)C(=O)NC1CCN(c2nc3c(cc2F)c(=O)c(C(=O)O)cn3C2CC2)C1` (stereo not shown) [Example 26o], for which the “Oral (ED50)” value with P. Aeruginosa A5007 was found to be 6.2 mg/kg/day; in the assay on Stap. Aureus NCTC 10649 it was 4.0 mg/kg/day; with E. Coli Juhl [1], 1.2 mg/kg/day. Also, the MIC in the assay on Strep pyogenes EES 61 turned out to be 3.1 µg/mL (≈ 6.96 µM); against E. Coli Juhl [2], 0.2 µg/mL (≈ 0.449 µM); in the assay on Stap. Aureus CMX 553 it was 0.39 µg/mL (≈ 0.875 µM).

Consider `CCCC(N)C(=O)NC1CCN(c2nc3c(cc2F)c(=O)c(C(=O)O)cn3C2CC2)C1` (stereo not shown) [Example 26p], for which the “Oral (ED50)” value in the assay on P. Aeruginosa A5007 was determined as 9.1 mg/kg/day; in the assay on Stap. Aureus NCTC 10649, 4.5 mg/kg/day. Also, the MIC was determined as 3.1 µg/mL (≈ 7.18 µM) in the assay with Strep pyogenes EES 61, 0.39 µg/mL (≈ 0.904 µM) against E. Coli Juhl [2] and 0.39 µg/mL (≈ 0.904 µM) against Stap. Aureus CMX 553.

Consider `CCCC(N)C(=O)NC1CCN(c2c(F)cc3c(=O)c(C(=O)O)cn(C4CC4)c3c2F)C1` (stereo not shown) [Example 26r], for which the “Oral (ED50)” value in the assay on P. Aeruginosa A5007 turned out to be 7.3 mg/kg/day; in the assay with Stap. Aureus NCTC 10649 it was 3.0 mg/kg/day; with E. Coli Juhl [1], 2.3 mg/kg/day.

With `CC(N)C(=O)NC1CCN(c2c(F)cc3c(=O)c(C(=O)O)cn(C4CC4)c3c2F)C1` (stereo not shown) [Example 26s], the “Oral (ED50)” value was found to be 5.0 mg/kg/day with P. Aeruginosa A5007, 4.8 mg/kg/day with Stap. Aureus NCTC 10649 and 1.8 mg/kg/day with E. Coli Juhl [1].

On to `O=C(O)c1cn(-c2ccc(F)cc2F)c2nc(N3CCC(NC(=O)C4CCCN4)C3)c(F)cc2c1=O` (stereo not shown) [Example 28], for which the “Oral (ED50)” value in the assay with Stap. Aureus NCTC 10649 came to 3.2 mg/kg/day.

For `CCC[C@H](NC(=O)CNC(=O)CN)C(=O)NC1CCN(c2nc3c(cc2F)c(=O)c(C(=O)O)cn3-c2ccc(F)cc2F)C1` (stereo partly shown) [Example 30], the MIC was over 100 µg/mL in the assay on Ps. Aeruginosa A5007, 100 µg/mL (≈ 162 µM) against Strep pyogenes EES 61, 25 µg/mL (≈ 40.5 µM) in the assay on E. Coli Juhl [2] and 25 µg/mL (≈ 40.5 µM) with Stap. Aureus CMX 553. The “Oral (ED50)” value in the assay on P. Aeruginosa A5007 was determined as 3.3 mg/kg/day; with Stap. Aureus NCTC 10649, 2.2 mg/kg/day.

Turning to `CS(=O)(=O)CC[C@H](N)C(=O)NC1CCN(c2nc3c(cc2F)c(=O)c(C(=O)O)cn3-c2ccc(F)cc2F)C1.Cl` (stereo partly drawn) [Example 31c, 7-[3 L-Methioninesulfone Amino-1-Pyrrolidinyl]-1-(2,4-Difluorophenyl)-6-Fluoro-1,4-Dihydro-4-Oxo 1,8-Naphthyridine 3-Carboxylic Acid Hydrochloride], the MIC against Ps. Aeruginosa A5007 was over 100 µg/mL; against Strep pyogenes EES 61 it was 25 µg/mL; with E. Coli Juhl [2], 12.5 µg/mL; in the assay on Stap. Aureus CMX 553, 25 µg/mL. The “Oral (ED50)” value in the assay on P. Aeruginosa A5007 was 7.8 mg/kg/day; in the assay with Stap. Aureus NCTC 10649, 1.8 mg/kg/day; in the assay with E. Coli Juhl [1] it was 1.8 mg/kg/day.

For the compound `NC(=O)C[C@H](N)C(=O)NC1CCN(c2nc3c(cc2F)c(=O)c(C(=O)O)cn3-c2ccc(F)cc2F)C1` (stereo partly drawn) [Example 41, 7-(3-L-Asparagine-amino-1-pyrrolidinyl)-1-(2,4-6-fluoro-1,4-dihydro-4-oxo-1,8-difluorophenyl)-3-carboxylic acid hydrochloride], the “Oral (ED50)” value with Stap. Aureus NCTC 10649 was 2.9 mg/kg/day.

`Cl.Cl.N[C@@H](Cc1c[nH]cn1)C(=O)NC1CCN(c2nc3c(cc2F)c(=O)c(C(=O)O)cn3-c2ccc(F)cc2F)C1` (stereo partly drawn) [Example 44c, 7-[3-L-Histidine-Amino-1-Pyrrolidinyl)-1-(2,4-Difluorophenyl)-6-Fluoro-1,4-Dihydro-4-oxo-1,8-Naphthyridine-3-Carboxylic Acid Dihydrochloride]: the MIC was over 64 µg/mL in the assay with Ps. Aeruginosa A5007, 32 µg/mL in the assay on Strep pyogenes EES 61, 64 µg/mL in the assay on E. Coli Juhl [2] and 16 µg/mL against Stap. Aureus CMX 553. The “Oral (ED50)” value was 51.3 mg/kg/day in the assay with P. Aeruginosa A5007 and 4.0 mg/kg/day with Stap. Aureus NCTC 10649.

As to `Cl.N[C@@H](CC(=O)O)C(=O)NC1CCN(c2nc3c(cc2F)c(=O)c(C(=O)O)cn3-c2ccc(F)cc2F)C1` (stereo partly drawn) [Example 45, 7-(3-L-Asp-amino-1-pyrrolidinyl)-1-(2,4-difluorophenyl)-6-fluoro-1,4-dihyd ro-4-oxo-1,8-naphthyridine-3-carboxylic acid hydrochloride], the “Oral (ED50)” value was 13.0 mg/kg/day with P. Aeruginosa A5007 and 1.5 mg/kg/day with Stap. Aureus NCTC 10649.

Turning to `Cl.Cl.NCCCC[C@H](N)C(=O)NC1CCN(c2nc3c(cc2F)c(=O)c(C(=O)O)cn3-c2ccc(F)cc2F)C1` (stereo partly shown) [Example 46, 7-(3-Lys-amino-1-pyrrolidinyl)-1-(2,4-difluorophenyl)-6-fluoro-1,4-dihydro-4-oxo-1,8-naphthyridine-3-carboxylic acid dihydrochloride], the MIC was over 100 µg/mL against Ps. Aeruginosa A5007, 100 µg/mL in the assay with Strep pyogenes EES 61 and 100 µg/mL in the assay with Stap. Aureus CMX 553. The “Oral (ED50)” value in the assay with Stap. Aureus NCTC 10649 turned out to be 3.4 mg/kg/day.
